According to paper doi:10.1101/2020.09.01.277368v1, “Disulfiram inhibits M. tuberculosis growth by altering methionine pool, redox status and host-immune response” (biorxiv, 2020):

Target: T1, MetA (HSAT, homoserine acetyl transferase, Rv3341) (Mycobacterium tuberculosis, UniProt P9WJY9)
T1 construct: gene metXA
Assay: endpoint DTNB CoA release assay
Type: biochemical

T1 sequence (P9WJY9 whole entry, looked up): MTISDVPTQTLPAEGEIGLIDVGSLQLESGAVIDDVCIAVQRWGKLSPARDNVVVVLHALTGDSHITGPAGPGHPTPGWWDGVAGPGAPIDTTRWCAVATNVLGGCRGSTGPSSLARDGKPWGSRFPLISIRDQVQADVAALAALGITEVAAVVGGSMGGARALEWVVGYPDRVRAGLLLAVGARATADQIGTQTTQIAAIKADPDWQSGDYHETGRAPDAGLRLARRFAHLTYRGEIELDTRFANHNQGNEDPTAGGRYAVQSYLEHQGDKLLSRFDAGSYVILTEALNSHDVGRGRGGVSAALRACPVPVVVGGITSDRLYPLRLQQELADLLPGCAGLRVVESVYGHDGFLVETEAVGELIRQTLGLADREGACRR

Structure (SMILES)	% inhibition at 100 μM [%]
O=Nc1c(-c2cccc([N+](=O)[O-])c2)nc2ncccn12 [NSC369066]	> 50
C/C(=N\NC(=S)N(C)C)c1ccccn1.[Cu][Br] [NSC635448]	> 50
Oc1cc(CNC2CCCCC2)c(O)cc1CNC1CCCCC1 [NSC48443]	> 50
Cc1ccc(S(=O)(=O)SC/C=C/CSS(=O)(=O)c2ccc(C)cc2)cc1 [NSC624158]	> 50
CCOC(=O)/C(C#N)=C1\SS/C(=C(/C#N)C(=O)OCC)S1 [NSC98363]	> 50
COc1cc(-c2ccc(Nc3ccccc3C(=O)O)c(OC)c2)ccc1Nc1ccccc1C(=O)O [NSC73735]	> 50
Oc1cc(-n2cccn2)c(O)cc1-n1cccn1 [NSC645987]	> 50
